Test results reported in the NIST ThermoML archive (doi:10.1021/je050020m).
± gives the expanded uncertainty stated by the source.

Test: xn = mol fraction of the nth substance listed
Conditions: Liquid, Vibrating tube method

## CCCCCCCCCC [decane] + O=C=O
313.11 K, 20002 kPa, x2 = 0.9663
  mass density: 840.48 ± 0.55 kg/m3
313.11 K, 20018 kPa, x2 = 0.4536
  mass density: 757.13 ± 0.54 kg/m3
313.11 K, 21015 kPa, x2 = 0.9663
  mass density: 848.66 ± 0.55 kg/m3
313.11 K, 21018 kPa, x2 = 0.4536
  mass density: 758.18 ± 0.54 kg/m3
313.11 K, 22006 kPa, x2 = 0.4536
  mass density: 759.18 ± 0.55 kg/m3
313.11 K, 22023 kPa, x2 = 0.9663
  mass density: 856.28 ± 0.54 kg/m3
313.11 K, 23003 kPa, x2 = 0.4536
  mass density: 760.18 ± 0.55 kg/m3
313.11 K, 23021 kPa, x2 = 0.9663
  mass density: 863.4 ± 0.53 kg/m3
313.11 K, 24023 kPa, x2 = 0.4536
  mass density: 761.23 ± 0.56 kg/m3
313.11 K, 24063 kPa, x2 = 0.9663
  mass density: 870.36 ± 0.53 kg/m3
313.11 K, 24976 kPa, x2 = 0.9663
  mass density: 876.18 ± 0.52 kg/m3
313.11 K, 25010 kPa, x2 = 0.4536
  mass density: 762.23 ± 0.58 kg/m3
313.12 K, 12053 kPa, x2 = 0.8114
  mass density: 782.82 ± 0.67 kg/m3
313.12 K, 13017 kPa, x2 = 0.8114
  mass density: 785.68 ± 0.46 kg/m3
313.12 K, 14021 kPa, x2 = 0.8114
  mass density: 788.54 ± 0.47 kg/m3
313.12 K, 15103 kPa, x2 = 0.8114
  mass density: 791.51 ± 0.47 kg/m3
313.12 K, 15990 kPa, x2 = 0.8114
  mass density: 793.84 ± 0.47 kg/m3
313.12 K, 16981 kPa, x2 = 0.8114
  mass density: 796.39 ± 0.48 kg/m3
313.12 K, 17993 kPa, x2 = 0.8114
  mass density: 798.92 ± 0.48 kg/m3
313.12 K, 19038 kPa, x2 = 0.8114
  mass density: 801.45 ± 0.49 kg/m3
313.12 K, 20009 kPa, x2 = 0.8114
  mass density: 803.73 ± 0.49 kg/m3
313.12 K, 21018 kPa, x2 = 0.8114
  mass density: 806.06 ± 0.5 kg/m3
313.12 K, 22020 kPa, x2 = 0.8114
  mass density: 808.29 ± 0.5 kg/m3
313.12 K, 22999 kPa, x2 = 0.8114
  mass density: 810.42 ± 0.5 kg/m3
313.12 K, 24019 kPa, x2 = 0.8114
  mass density: 812.6 ± 0.51 kg/m3
313.12 K, 25017 kPa, x2 = 0.8114
  mass density: 814.7 ± 0.61 kg/m3
323.04 K, 11016 kPa, x2 = 0.9663
  mass density: 580.54 ± 1.3 kg/m3
323.04 K, 12005 kPa, x2 = 0.8114
  mass density: 762.12 ± 0.77 kg/m3
323.04 K, 12030 kPa, x2 = 0.9663
  mass density: 636.15 ± 1.1 kg/m3
323.04 K, 13009 kPa, x2 = 0.8114
  mass density: 765.56 ± 0.48 kg/m3
323.04 K, 13015 kPa, x2 = 0.9663
  mass density: 672.02 ± 0.91 kg/m3
323.04 K, 14007 kPa, x2 = 0.9663
  mass density: 698.83 ± 0.8 kg/m3
323.04 K, 14026 kPa, x2 = 0.8114
  mass density: 769 ± 0.48 kg/m3
323.04 K, 15008 kPa, x2 = 0.8114
  mass density: 772.02 ± 0.49 kg/m3
323.04 K, 15021 kPa, x2 = 0.9663
  mass density: 721.04 ± 0.72 kg/m3
323.04 K, 16018 kPa, x2 = 0.9663
  mass density: 739.12 ± 0.67 kg/m3
323.04 K, 16046 kPa, x2 = 0.8114
  mass density: 775.13 ± 0.49 kg/m3
323.04 K, 17018 kPa, x2 = 0.8114
  mass density: 777.99 ± 0.49 kg/m3
323.04 K, 17026 kPa, x2 = 0.9663
  mass density: 754.76 ± 0.64 kg/m3
323.04 K, 18002 kPa, x2 = 0.8114
  mass density: 780.75 ± 0.49 kg/m3
323.04 K, 18010 kPa, x2 = 0.9663
  mass density: 768.22 ± 0.62 kg/m3
323.04 K, 19001 kPa, x2 = 0.9663
  mass density: 780.23 ± 0.6 kg/m3
323.04 K, 19025 kPa, x2 = 0.8114
  mass density: 783.58 ± 0.49 kg/m3
323.04 K, 20025 kPa, x2 = 0.9663
  mass density: 791.43 ± 0.58 kg/m3
323.04 K, 20031 kPa, x2 = 0.8114
  mass density: 786.22 ± 0.49 kg/m3
323.04 K, 21021 kPa, x2 = 0.9663
  mass density: 801.33 ± 0.57 kg/m3
323.04 K, 21047 kPa, x2 = 0.8114
  mass density: 788.86 ± 0.5 kg/m3
323.04 K, 21988 kPa, x2 = 0.8114
  mass density: 791.16 ± 0.5 kg/m3
323.04 K, 22023 kPa, x2 = 0.9663
  mass density: 810.55 ± 0.56 kg/m3
323.04 K, 22999 kPa, x2 = 0.8114
  mass density: 793.66 ± 0.5 kg/m3
323.04 K, 23026 kPa, x2 = 0.9663
  mass density: 819.05 ± 0.55 kg/m3
323.04 K, 24016 kPa, x2 = 0.8114
  mass density: 796.11 ± 0.5 kg/m3
323.04 K, 24036 kPa, x2 = 0.9663
  mass density: 827.07 ± 0.55 kg/m3
323.04 K, 25030 kPa, x2 = 0.9663
  mass density: 834.47 ± 0.54 kg/m3
323.04 K, 25054 kPa, x2 = 0.8114
  mass density: 798.55 ± 0.51 kg/m3
323.05 K, 1989 kPa, x2 = 0.0551
  mass density: 710.33 ± 0.55 kg/m3
323.05 K, 3015 kPa, x2 = 0.0551
  mass density: 711.28 ± 0.55 kg/m3
323.05 K, 3984 kPa, x2 = 0.0551
  mass density: 712.18 ± 0.55 kg/m3
323.05 K, 5002 kPa, x2 = 0.0551
  mass density: 713.14 ± 0.56 kg/m3
323.05 K, 6010 kPa, x2 = 0.0551
  mass density: 714.04 ± 0.56 kg/m3
323.05 K, 7043 kPa, x2 = 0.0551
  mass density: 714.97 ± 0.56 kg/m3
323.05 K, 8018 kPa, x2 = 0.0551
  mass density: 715.86 ± 0.57 kg/m3
323.05 K, 9009 kPa, x2 = 0.0551
  mass density: 716.73 ± 0.57 kg/m3
323.05 K, 10008 kPa, x2 = 0.0551
  mass density: 717.66 ± 0.58 kg/m3
323.05 K, 11036 kPa, x2 = 0.0551
  mass density: 718.47 ± 0.58 kg/m3
323.05 K, 11995 kPa, x2 = 0.0551
  mass density: 719.35 ± 0.58 kg/m3
323.05 K, 13035 kPa, x2 = 0.0551
  mass density: 720.16 ± 0.59 kg/m3
